Measurements as given in patent US20250179167A1, “IL-6 INHIBITOR AS TREATMENT FOR NEPHROPATHY” (YALE UNIVERSITY, priority 2022, published 2025).

Legend:
[1] = system: diabetic CD-1 mice; experiment: FA modulators (fenofibrate, etomoxir, C75, simvastatin) in diabetic CD-1 mice; type: in vivo, mouse; conditions: for CPT1a level / FAO, as measured by [14CO2] release / β-catenin level / fibrogenic phenotype / level of fibrosis / level of GR protein in CD31 positive cells: diabetic CD-1 mice; for fibrogenic phenotype / level of fibrosis / level of GR protein in CD31 positive cells: treated for 4 weeks; for fibronectin mRNA level / αSMA mRNA level: diabetic kidneys, CD-1 mice
Protocol: FIG. 33A-33F show endothelial GR is essential for the action of anti-dyslipidemic drugs in the diabetic kidney disease. (FIG. 33A) Masson trichrome (MTS) and Sirius red staining in kidneys of control, diabetic, fenofibrate-, etomoxir-, C75- and simvastatin-treated diabetic mice. Representative images (original magnification 300×) are shown. Relative area of fibrosis (%) and relative collagen deposition (%) were measured using the ImageJ program. n=6 biologically independent mice/group combined from two experiments were analyzed. Scale bar 50 μm. (FIG. 33B) Co-immunolabeling of GR/CD31 was analyzed by fluorescence microscopy. FITC-labeled GR, rhodamine-labeled CD31 and DAPI were used. Representative images are shown; original magnification 300×. Scale bar 50 μm. n=6 biologically independent mice/group combined from two experiments were analyzed. (FIG. 33C) PCR gene analiof fibronectin and α-SMA in the kidneys. 18S was used as an internal control. n=6 biologically independent mice/group. (FIG. 33D) Blood glucose measurements in control, diabetic, fenofibrate-, etomoxir-, C75- and simvastatin-treated diabetic mice. n=6 biologically independent mice/group. (FIG. 33E) Radiolabeled [^14C]palmitate oxidation and [^14CO2]release were measured. CPM of each sample was counted. Endothelial cells isolated from six biologically independent mice were evaluated. Three independent experiments were analyzed. Data are mean±SEM (FIG. 33F) Immunohistochemical analysis of CPT1a and β-catenin was analyzed in the kidneys of control, diabetic, fenofibrate-, C75-, etomoxir- and simvastatin-treated diabetic mice. n=6 biologically independent mice/group. Representative images are shown; original magnification 400×. Scale bar 50 μm. Data are mean SEM. In all panels, one-way Anova with Tukey multiple comparison post hoc test was used to calculate statistical significance. Significance—*p<0.05, **p<0.01, ***p<0.001. Con: control, DM: diabetic, feno: fenofibrate.
A single IP dose of 200 mg/kg STZ was used to induce diabetes in CD-1 mice.
In one experiment, male mice were randomized to one of 4 groups sixteen weeks after induction of diabetes: (i) untreated, (ii) fenofibrate (100 mg/kg), (iii) simvastatin (40 mg/kg), or (iv) Wnt inhibitor (LGK974; 5 mg/kg). In each case, mice were treated for 4 weeks and compared to untreated diabetic CD-1 mice. In another experiment, male diabetic CD-1 mice were randomized into one of 3 groups: (i) untreated (vehicle), (ii) etomoxir (20 mg/kg) or (iii) C75 (15 mg/kg); in each case mice were treated (IP) three times/week for a total 4 weeks.
Morphological Evaluation. A point-counting method was utilized to evaluate the relative area of the mesangial matrix. The inventors analyzed PAS-stained glomeruli from each mouse using a digital microscope screen grid containing 540 (27×20) points. Masson's trichrome-stained images were evaluated by ImageJ software, and the fibrotic areas were estimated.
Sirius red staining. Deparaffinized sections were incubated with picrosirius red solution for 1 hour at room temperature. The slides were washed twice with acetic acid solution for 30 seconds per wash. The slides were then dehydrated in absolute alcohol three times, cleared in xylene, and mounted with a synthetic resin. Sirius red staining was analyzed using ImageJ software, and fibrotic areas were quantified.
Immunohistochemistry. Paraffin-embedded kidney sections (5 μm thick) were deparaffinized and rehydrated (2 min in xylene, four times; 1 min in 100% ethanol, twice; 1 min in 95% ethanol; 45 s in 70% ethanol; and 1 min in distilled water), and the antigen was retrieved in a 10 mM citrate buffer pH 6 at 98° C. for 60 min. To block the endogenous peroxidase, all sections were incubated in 0.3% hydrogen peroxide for 10 min. The immunohistochemistry was performed using a Vectastain ABC Kit (Vector Laboratories, Burlingame, CA). Mouse anti-β-catenin antibody (1:100) and CPT1a (Abnova; H00001374-DO1P; 1:100) antibodies were used. […]

[2] = system: control littermates and GR^ECKO mice; experiment: Etomoxir and C75 in non-diabetic and diabetic control littermates and GR^ECKO mice; type: in vivo, mouse; conditions: for level of renal fibrosis: nondiabetic control and GR^ECKO mice
Protocol: FIGS. 6A-6E show metabolic reprogramming by loss of endothelial GR loss worsens diabetic kidney disease. (FIG. 6A) Radiolabeled ^14C-palmitate uptake analysis in isolated endothelial cells from kidneys of nondiabetic and diabetic control, GR^ECKO Apoe^−/− and DKO mice. CPM of each sample were counted. Data were normalized to μg protein. Fold activity is presented. Endothelial cells isolated and cultured from six biologically independent mice/group were performed in triplicate and analyzed for ^14C-palmitate uptake analysis. Data are mean±SEM. (FIG. 6B) Radiolabeled [^14C]palmitate oxidation and [^14CO2]release were measured in isolated endothelial cells from kidneys of nondiabetic and diabetic control, GR^ECKO Apoe^−/− and DKO mice. CPM of each sample was counted. Data were normalized to μg protein. Fold activity is presented. Endothelial cells isolated and cultured from six biologically independent mice/group were performed in triplicate and analyzed for ^14C-palmitate uptake analysis. Data are mean±SEM. (FIG. 6C) Body weight, blood glucose, and kidney weight/body weight were measured at the end of these experiments. N=6 biologically independent mice from two experiments. Ex vivo radiolabeled [^14C]palmitate oxidation and [^14CO2]release were measured in kidneys. CPM of each sample was counted. Isolated endothelial cells from five biologically independent mice/group were analyzed in triplicate. Data are mean±SEM. (FIG. 6D) Masson trichrome, Sirius red and PAS staining were analyzed in the kidneys of control, etomoxir- and C75-treated diabetic mice. Representative images are shown; original magnification 300×. Relative area of fibrosis (%) and relative collagen deposition (%) were measured using the ImageJ program. N=8 biologically independent mice per/group from three independent experiments were analyzed. Scale bar 50 μm. Data are mean±SEM. (FIG. 6E) Immunohistochemical analysis of CPT1a and β-catenin. Representative images are shown; original magnification 300×. Scale bar 50 μm. N=6 biologically independent mice per group from three independent experiments. For all panels one-way ANOVA with Tukey post-test was used for analysis of statistical significance. Significance—*p<0.05, **p<0.01, ***p<0.001.
Body weight, blood glucose, and kidney/body weight ratio and fatty acid oxidation as represented by [^14CO2]release are shown. [^14C]palmitate was used as substrate and CPM counts were normalized by protein. n=6 biologically independent mice/group. Data are mean±SEM. One-way Anova with Tukey multiple comparison post hoc test was used to calculate statistical significance. Significance—*p<0.05.
Masson trichrome staining (upper panel) and Sirius red (lower panels) in etomoxir- and C75-treated non-diabetic control and GR^ECKO mice. Etomoxir (20 mg/kg) and C75 (15 mg/kg) were dosed (IP) three times per week for 3 weeks in GR^ECKO and control littermates. Representative images are shown; original magnification 400×. Area of fibrosis (%) and relative collage deposition (%) in n=6 biologically independent mice/group were combined from two independent experiments. Scale bar 50 μm. Data are mean±SEM. One-way Anova with Tukey multiple comparison post hoc test was used to calculate statistical significance. Significance-**p<0.01.
Animal Experimentation. All experiments were performed according to a protocol approved by the Institutional Animal Care and Use Committee at the Yale University School of Medicine and were in accordance with the National Institute of Health (NIH) Guidelines for the Care of Laboratory Animals Mice were housed at an ambient temperature of 68-79° F. with a humidity that ranged between 30%-70%. They were exposed to 12-h light-dark cycles Mice lacking the endothelial glucocorticoid receptor (GR) (known as GR^ECKO) and those lacking this receptor on the Apoe null background (DKO) were generated as previously described^25; these mice were on the C57BL/6 background. […]

[3] = kidney ECs from diabetic GR^ECKO mice
[4] = kidney ECs, non-diabetic control littermates
[5] = kidneys of diabetic GR^ECKO mice
[6] = kidneys of diabetic control mice

Row | Structure (SMILES) | CPT1a level [1] | FAO, as measured by [14CO2] release [1] | β-catenin level [1] | fibrogenic phenotype / level of fibrosis [1] | level of GR protein in CD31 positive cells [1] | fibronectin mRNA level [1] | αSMA mRNA level [1] | expression of CPT1a (immunohistochemical analysis, FIG. 6E) ([2]; diabetic GR^ECKO mice) | expression of β-catenin (immunohistochemical analysis, FIG. 6E) ([2]; diabetic GR^ECKO mice) | expression of CPT1a (immunohistochemical analysis, FIG. 6E) ([2]; diabetic control mice) | expression of β-catenin (immunohistochemical analysis, FIG. 6E) ([2]; diabetic control mice) | FAO [2, 3] | FAO [2, 4] | CPT1a level [2, 5] | level of β-catenin [2, 5] | renal fibrogenic phenotype [2, 5] | CPT1a level [2, 6] | level of β-catenin [2, 6] | renal fibrogenic phenotype [2, 6] | level of renal fibrosis [2]
1 | CCOC(=O)[C@@]1(CCCCCCOc2ccc(Cl)cc2)CO1 [etomoxir] | significant suppression | significant suppression | induced the expression of β-catenin | exacerbated the fibrosis | suppressed it | upregulated | upregulated | A similar pattern was observed | A similar pattern was observed | decreased expression of CPT1a | increasing expression of β-catenin | significant suppression of FAO | significant suppression of FAO | suppressed the CPT1a level | increased the expression level of β-catenin | accelerated the renal fibrogenic phenotype | suppressed the CPT1a level | increased the expression level of β-catenin | accelerated the renal fibrogenic phenotype | slightly increased the level of renal fibrosis
2 | C=C1C(=O)OC(CCCCCCCC)C1C(=O)O (stereo not shown) [C75] | increased the expression of CPT1a | increased the level of FAO | suppressed the level of β-catenin | ameliorated the fibrogenic phenotype | restored | downregulated | downregulated | A similar pattern was observed | A similar pattern was observed | substantially reverse | substantially reverse | unable to rescue | restored FAO | also observed in the GR^ECKO mice, though to a lesser extent | also observed in the GR^ECKO mice, though to a lesser extent | also observed in the GR^ECKO mice, though to a lesser extent | restored CPT1a | completely diminished the level of β-catenin | clearly abolished the renal fibrogenic phenotype | mitigated
